The term MIC denotes the lowest concentration that inhibits growth of the organism.

These results are taken from patent publication US11419335B2, “N-arylated analogues and uses thereof” (University of Florida Research Foundation, Incorporated, priority 2016, dated 2022).

Each structure is given as a SMILES string. Values after ≈ are worked out from the molar mass of the structure shown. Marks after values point to notes of the source that are not given here.

Holding throughout (format): cell-based
Experiment [1] concerns vancomycin-resistant Enterococcus faecium (VRE strain ATCC 700221). The experiment is described as follows: MIC broth microdilution, VRE 700221. The note with it: for MIC E. faecium VRE 700221: Table 1A. The method, then: (§1) The minimum inhibitory concentration (MIC) for each tested compound was determined by the broth microdilution method as recommended by the Clinical and Laboratory Standards Institute (CLSI). In a 96-well plate, eleven two-fold serial dilutions of each compound were made in a final volume of 100 μL Luria Broth. Each well was inoculated with ˜10^5 bacterial cells at the initial time of incubation, prepared from a fresh log phase culture (OD600 of 0.5 to 1.0 depending on bacterial strain). The MIC was defined as the lowest concentration of compound that prevented bacterial growth after incubating 16 to 18 hours at 37° C. (MIC values were supported by spectrophotometric readings at OD600). DMSO served as our vehicle and negative control in each microdilution MIC assay. DMSO was serially diluted with a top concentration of 1% v/v.
as §1, with “for each compound was” for “for each tested compound was”, “Standards Institute (CLSI).^6 In a” for “Standards Institute (CLSI). In a”, “concentration of test compound that” for “concentration of compound that”, “37° C. The concentration range tested for each compound during this study was 0.10 to 100 μM. DMSO served” for “37° C. (MIC values were supported by spectrophotometric readings at OD600). DMSO served”, “1% v/v. All MIC values were obtained from a minimum of three independent experiments.” for “1% v/v.”
On the technique in general: Broth dilution looks for growth in wells or tubes with falling amounts of substance.

Experiment [2] deals with Acinetobacter baumannii (ATCC 1794). Put plainly: MIC broth microdilution, A. baumannii 1794. The note with it: for MIC A. baumannii 1794: Table 1A, in µM. The method, then:
as §1
as §1, with “for each compound was” for “for each tested compound was”, “Standards Institute (CLSI).^6 In a” for “Standards Institute (CLSI). In a”, “concentration of test compound that” for “concentration of compound that”, “37° C. The concentration range tested for each compound during this study was 0.10 to 100 μM. DMSO served” for “37° C. (MIC values were supported by spectrophotometric readings at OD600). DMSO served”, “1% v/v. All MIC values were obtained from a minimum of three independent experiments.” for “1% v/v.”

The subject of experiment [3] is methicillin-resistant Staphylococcus aureus MRSA-2 (clinical isolate). Put plainly: MIC broth microdilution, MRSA-2. The method, then: as §1
as §1, with “for each compound was” for “for each tested compound was”, “Standards Institute (CLSI).^6 In a” for “Standards Institute (CLSI). In a”, “concentration of test compound that” for “concentration of compound that”, “37° C. The concentration range tested for each compound during this study was 0.10 to 100 μM. DMSO served” for “37° C. (MIC values were supported by spectrophotometric readings at OD600). DMSO served”, “1% v/v. All MIC values were obtained from a minimum of three independent experiments.” for “1% v/v.”

For experiment [4], the system named is methicillin-resistant Staphylococcus epidermidis (MRSE strain ATCC 35984). Put plainly: MIC broth microdilution, MRSE 35984. The note with it: for MIC S. epidermidis MRSE 35984: Table 1A. Here is the method: as §1
as §1, with “for each compound was” for “for each tested compound was”, “Standards Institute (CLSI).^6 In a” for “Standards Institute (CLSI). In a”, “concentration of test compound that” for “concentration of compound that”, “37° C. The concentration range tested for each compound during this study was 0.10 to 100 μM. DMSO served” for “37° C. (MIC values were supported by spectrophotometric readings at OD600). DMSO served”, “1% v/v. All MIC values were obtained from a minimum of three independent experiments.” for “1% v/v.”

The test system of experiment [5] is Pseudomonas aeruginosa (PAO1). Put plainly: MIC broth microdilution, PAO1. Here is the method: as §1
as §1, with “for each compound was” for “for each tested compound was”, “Standards Institute (CLSI).^6 In a” for “Standards Institute (CLSI). In a”, “concentration of test compound that” for “concentration of compound that”, “37° C. The concentration range tested for each compound during this study was 0.10 to 100 μM. DMSO served” for “37° C. (MIC values were supported by spectrophotometric readings at OD600). DMSO served”, “1% v/v. All MIC values were obtained from a minimum of three independent experiments.” for “1% v/v.”

Regarding `CCCCCCCCCCCCCCCCn1cc[n+](Cc2cc(C(F)(F)F)cc(C(F)(F)F)c2)c1C.[Br-]` [Compound 19], the “MIC E. faecium VRE 700221” value in experiment [1] is given as 9.38^a. Moreover, the “MIC VRE 700221” value in experiment [1] (Table 4) turned out to be 9.38a micromolar. Also, the “MIC A. baumannii 1794” value in experiment [2] is greater than 100. Further, the “MIC A. bau. 1794” value in experiment [2] (Table 4) is greater than 100 µM. Moreover, the MIC MRSA-2 in experiment [3] (Table 1A) and in experiment [3] (Table 4) was 12.5 µM in each case. The “MIC MRSE 35984” value in experiment [4] (Table 4) came to 12.5 µM. Moreover, the MIC PAO1 in experiment [5] (Table 1A) and in experiment [5] (Table 4) was greater than 100 µM throughout.

On to `CCCCCCCCCCCCCCCCn1cc[n+](Cc2cc(Br)cc(Br)c2)c1C.[Br-]` [Compound 20], for which the MIC E. faecium VRE 700221 in experiment [1] is 6.25 µM. In addition, in experiment [1] (Table 4), the “MIC VRE 700221” value was 6.25 µM. In addition, the “MIC A. baumannii 1794” value in experiment [2] is greater than 100. Moreover, the “MIC A. bau. 1794” value in experiment [2] (Table 4) was greater than 100 µM. For the same compound, the MIC MRSA-2 in experiment [3] (Table 1A) and in experiment [3] (Table 4) was 37.5 µM in each case. In experiment [4], this compound gave an MIC S. epidermidis MRSE 35984 of 12.5 µM. Also, in experiment [4] (Table 4), the “MIC MRSE 35984” value amounted to 12.5 µM. The MIC PAO1 in experiment [5] (Table 1A) and in experiment [5] (Table 4) was greater than 100 µM throughout.

`Cc1nccn1Cc1ccccc1` [Compound 22] returned an MIC E. faecium VRE 700221 in experiment [1] greater than 100 µM. For the same compound, the MIC in experiment [1] (Table 4, read-out: MIC VRE 700221) was greater than 100 µM; in experiment [2] (Acinetobacter baumannii, ATCC1794, Table 4, read-out: MIC A. bau. 1794), greater than 100 µM; in experiment [3] (Staphylococcus aureus, MRSA, Table 4, read-out: MIC MRSA-2) it was greater than 100 µM; in experiment [4] (Staphylococcus epidermidis, Table 4, read-out: MIC MRSE 35984), greater than 100 µM; in experiment [5] (Pseudomonas aeruginosa, PAO1, Table 4) it was greater than 100 µM. Also, the “MIC A. baumannii 1794” value in experiment [2] is listed as greater than 100. This compound also showed an MIC MRSA-2 in experiment [3] (Table 1A) greater than 100 µM. For the same compound, in experiment [4], the MIC S. epidermidis MRSE 35984 is greater than 100 µM. In experiment [5] (Table 1A), this compound had an MIC PAO1 greater than 100 µM.

With `CCCCCCCCCCCCCCCCn1ccnc1C` [Compound 23, 1-hexadecyl-2-methyl-1H-imidazole], the “MIC E. faecium VRE 700221” value in experiment [1] is 2.35^a. Further, the “MIC A. baumannii 1794” value in experiment [2] is on record as greater than 100. Also, the MIC MRSA-2 in experiment [3] (Table 1A) was found to be 6.25 µM (≈ 1.92 µg/mL). For the same compound, the MIC S. epidermidis MRSE 35984 in experiment [4] amounted to 3.13 µM (≈ 0.959 µg/mL). The same compound registered an MIC PAO1 in experiment [5] (Table 1A) greater than 100 µM.

For the compound `CCCCCCCCCCCCCCCCn1c(C)[n+](Cc2cccc(OC)c2)c2ccccc21.[Br-]` [Compound 26], the MIC E. faecium VRE 700221 in experiment [1] was 1.56 µM. Further, the “MIC VRE 700221” value in experiment [1] (Table 4) amounted to 1.56 µM. Moreover, the “MIC A. baumannii 1794” value in experiment [2] was greater than 100. Moreover, the “MIC A. bau. 1794” value in experiment [2] (Table 4) was greater than 100 µM. Besides, the MIC MRSA-2 in experiment [3] (Table 1A) and in experiment [3] (Table 4) was 3.13 µM throughout. The MIC S. epidermidis MRSE 35984 in experiment [4] was found to be 6.25 µM. Moreover, the “MIC MRSE 35984” value in experiment [4] (Table 4) was found to be 6.25 µM. Also, the MIC PAO1 in experiment [5] (Table 1A) and in experiment [5] (Table 4) was greater than 100 µM each time.

In experiment [1], `CCCCCCCCCCCCCCCCn1c(C)[n+](Cc2cccc(F)c2)c2ccccc21.[Br-]` [Compound 27] registered an MIC E. faecium VRE 700221 of 3.13 µM. Moreover, the “MIC VRE 700221” value in experiment [1] (Table 4) was 3.13 µM. The “MIC A. baumannii 1794” value in experiment [2] is recorded as greater than 100. The “MIC A. bau. 1794” value in experiment [2] (Table 4) is greater than 100 µM. In addition, the MIC MRSA-2 in experiment [3] (Table 1A) and in experiment [3] (Table 4) was 6.25 µM in each case. In experiment [4], the “MIC S. epidermidis MRSE 35984” value is reported as 9.38^a. Also, the “MIC MRSE 35984” value in experiment [4] (Table 4) is 9.38a micromolar. In addition, the MIC PAO1 in experiment [5] (Table 1A) and in experiment [5] (Table 4) was greater than 100 µM each time.
